Molecular target: T1, hGPR120 (Homo sapiens, UniProt Q5NUL3)
T1 construct: expressed in transfected cells; host or cells: CHO-K1
T1 sequence (Q5NUL3 1-361): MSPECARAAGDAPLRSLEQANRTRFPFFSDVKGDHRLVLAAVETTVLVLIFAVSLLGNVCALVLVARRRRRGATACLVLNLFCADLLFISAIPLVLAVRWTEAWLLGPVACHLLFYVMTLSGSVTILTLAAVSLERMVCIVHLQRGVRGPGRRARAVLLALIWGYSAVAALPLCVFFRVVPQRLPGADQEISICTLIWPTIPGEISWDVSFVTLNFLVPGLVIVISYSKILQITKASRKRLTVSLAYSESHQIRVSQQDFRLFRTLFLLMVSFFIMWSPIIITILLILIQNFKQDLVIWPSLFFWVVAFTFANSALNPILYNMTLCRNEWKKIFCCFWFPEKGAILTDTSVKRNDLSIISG
Experiment: Measurement of Activity of GPR120 Agonist (Cell-Based Assay), Calcium 5 dye fluorescence
Conditions: CHO-K1 cells expressing Ga16 and hGPR120
Method in brief: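 Fluorescence increase (Ex 485 nm, Em 525 nm) after agonist addition was calculated as relative percent of the 1% DMSO-only signal. Cells were CHO-K1 stably carrying Gα16 plus human GPR120, dye-loaded for 1 h after overnight (18 h) culture.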

| Structure (SMILES) | EC50 |
| --- | --- |
| CC(CCCC(=O)O)c1c(F)cc(-c2cccc3c2OC(F)(F)O3)cc1F (stereo not drawn) [Example 171, 5-[4-(2,2-difluoro-benzo[1,3]dioxol-4-yl)-2,6-difluoro-phenyl]-hexanoic acid] | < 200 nM |
| O=C(O)COCC(F)(F)c1ccc(-c2cccnc2OC2CCCC2)cc1 [Example 172, {2-[4-(2-cyclopentyloxy-pyridin-3-yl)-phenyl]-2,2-difluoro-ethoxy}-acetic acid] | 2000 to 20000 nM |
| O=C(O)COCC(F)(F)c1ccc(-c2cccnc2SC2CCC2)cc1 [Example 173, {2-[4-(2-cyclobutylsulfanyl-pyridin-3-yl)-phenyl]-2,2-difluoro-ethoxy}-acetic acid] | 2000 to 20000 nM |
| O=C(O)COCC(F)(F)c1ccc(-c2cccc(OC3CCC3)n2)cc1 [Example 174, {2-[4-(6-cyclobutoxy-pyridin-2-yl)-phenyl]-2,2-difluoro-ethoxy}-acetic acid] | 200 to 2000 nM |
| O=C(O)CCC1CC1c1c(F)cc(-c2cccnc2OC2CCCC2)cc1F (stereo not drawn) [Example 175, 3-{2-[4-(2-cyclopentyloxy-pyridin-3-yl)-2,6-difluoro-phenyl]-cyclopropyl}-propanoic acid] | < 200 nM |
| O=C(O)CCC1CC1c1c(F)cc(-c2cccnc2SC2CCC2)cc1F (stereo not drawn) [Example 176, 3-{2-[4-(2-cyclobutylsulfanyl-pyridin-3-yl)-2,6-difluoro-phenyl]-cyclopropyl}-propanoic acid] | < 200 nM |
| O=C(O)CCCC(F)(F)c1ccc(-c2cccnc2OC2CCCC2)cc1 [Example 177, 5-[4-(2-cyclopentyloxy-pyridin-3-yl)-phenyl]-5,5-difluoro-pentanoic acid] | < 200 nM |
| O=C(O)CCCC(F)(F)c1ccc(-c2cccnc2SC2CCC2)cc1 [Example 178, 5-[4-(2-cyclobutylsulfanyl-pyridin-3-yl)-phenyl]-5,5-difluoro-pentanoic acid] | < 200 nM |
| CCCSc1ncccc1-c1cc(F)c(C2CC2CCC(=O)O)c(F)c1 (stereo not drawn) [Example 179, 3-{2-[2,6-difluoro-4-(2-propylsulfanyl-pyridin-3-yl)-phenyl]-cyclopropyl}-propanoic acid] | < 200 nM |
| O=C(O)CCC1CC1c1c(F)cc(-c2cccc(OC3CCC3)n2)cc1F (stereo not drawn) [Example 180, 3-{2-[4-(6-cyclobutoxy-pyridin-2-yl)-2,6-difluoro-phenyl]-cyclopropyl}-propanoic acid] | < 200 nM |
| O=C(O)CCCC(F)(F)c1ccc(-c2cccnc2OCC2CC2)cc1 [Example 181, 5-[4-(2-cyclopropylmethoxy-pyridin-3-yl)-phenyl]-5,5-difluoro-pentanoic acid] | < 200 nM |
| O=C(O)CCC1CC1c1c(F)cc(-c2cccnc2SC2CCCC2)cc1F (stereo not drawn) [Example 182, 3-{2-[4-(2-cyclopentylsulfanyl-pyridin-3-yl)-2,6-difluoro-phenyl]-cyclopropyl}-propanoic acid] | < 200 nM |
| O=C(O)CCC1CC1c1c(F)cc(-c2cccnc2NC2CCCC2)cc1F (stereo not drawn) [Example 183, 3-{2-[4-(2-cyclopentylamino-pyridin-3-yl)-2,6-difluoro-phenyl]-cyclopropyl}-propanoic acid] | < 200 nM |
| O=C(O)CCCC(F)(F)c1ccc(-c2cccnc2SC2CCCC2)cc1 [Example 184, 5-[4-(2-cyclopentylsulfanyl-pyridin-3-yl)-phenyl]-5,5-difluoro-pentanoic acid] | < 200 nM |
| O=C(O)CCCC(F)(F)c1ccc(-c2cccnc2OC2CCC2)cc1 [Example 185, 5-[4-(2-cyclobutoxy-pyridin-3-yl)-phenyl]-5,5-difluoro-pentanoic acid] | < 200 nM |
| O=C(O)CCCC(F)(F)c1ccc(-c2cccc(OC3CCC3)n2)cc1 [Example 186, 5-[4-(6-cyclobutoxy-pyridin-2-yl)-phenyl]-5,5-difluoro-pentanoic acid] | < 200 nM |
| O=C(O)CC1CCC(c2ccc(-c3cccnc3OC3CCCC3)cc2F)CC1 (stereo not drawn) [Example 187, {4-[4-(2-cyclopentyloxy-pyridin-3-yl)-2-fluoro-phenyl]-cyclohexyl}-acetic acid] | 200 to 2000 nM |
| O=C(O)CCC1CC1c1c(F)cc(-c2cccnc2OC2CCC2)cc1F (stereo not drawn) [Example 188, 3-{2-[4-(2-cyclobutoxy-pyridin-3-yl)-2,6-difluoro-phenyl]-cyclopropyl}-propanoic acid] | < 200 nM |
| O=C(O)CCC1CC1c1c(F)cc(-c2cccnc2OCC2CCC2)cc1F (stereo not drawn) [Example 189, 3-{2-[4-(2-cyclobutylmethoxy-pyridin-3-yl)-2,6-difluoro-phenyl]-cyclopropyl}-propanoic acid] | < 200 nM |
| O=C(O)CCC1CC1c1c(F)cc(-c2cccnc2OC2CCOCC2)cc1F (stereo not drawn) [Example 190, 3-(2-{2,6-difluoro-4-[2-(tetrahydro-pyran-4-yloxy)-pyridin-3-yl]-phenyl}-cyclopropyl)-propanoic acid] | 200 to 2000 nM |

| Structure (SMILES) | EC50 |
| --- | --- |
| O=C(O)CCC1CC1c1c(F)cc(-c2cccc(OCC3CC3)n2)cc1F (stereo not drawn) [Example 191, 3-{2-[4-(6-cyclopropylmethoxy-pyridin-2-yl)-2,6-difluoro-phenyl]-cyclopropyl}-propanoic acid] | < 200 nM |
| CC(C)Sc1cccc(-c2ccc(C(F)(F)CCCC(=O)O)cc2)n1 [Example 192, 5,5-difluoro-5-[4-(6-isopropylsulfanyl-pyridin-2-yl)-phenyl]-pentanoic acid] | < 200 nM |
| CC1(C)Cc2c(cccc2-c2ccc(OCCCC(=O)O)cc2)O1 [Example 193, 4-[4-(2,2-dimethyl-2,3-dihydro-benzofuran-4-yl)-phenoxy]-butyric acid] | < 200 nM |
| CC1(C)Cc2c(cccc2-c2ccc(OCCCC(=O)O)c(F)c2)O1 [Example 194, 4-[4-(2,2-dimethyl-2,3-dihydro-benzofuran-4-yl)-2-fluoro-phenoxy]-butyric acid] | < 200 nM |
| CN(CCCC(=O)O)c1c(F)cc(-c2cccnc2SC2CCC2)cc1F [Example 195, 4-{[4-(2-cyclobutylsulfanyl-pyridin-3-yl)-2,6-difluoro-phenyl]-methyl-amino}-butyric acid] | < 200 nM |
| CN(CCCC(=O)O)c1c(F)cc(-c2cccnc2OC2CCCC2)cc1F [Example 196, 4-{[4-(2-cyclopentyloxy-pyridin-3-yl)-2,6-difluoro-phenyl]-methyl-amino}-butyric acid] | < 200 nM |
| CN(CCCC(=O)O)c1c(F)cc(-c2cccnc2SC2CCCC2)cc1F [Example 197, 4-{[4-(2-cyclopentylsulfanyl-pyridin-3-yl)-2,6-difluoro-phenyl]-methyl-amino}-butyric acid] | < 200 nM |
| CN(CCCC(=O)O)c1c(F)cc(-c2cccc(OC3CCC3)c2)cc1F [Example 199, 4-[(3′-cyclobutoxy-3,5-difluoro-biphenyl-4-yl)-methyl-amino]-butyric acid] | < 200 nM |
| O=C(O)CCCn1ccc2cc(-c3cccnc3SC3CCCC3)ccc21 [Example 200, 4-[5-(2-cyclopentylsulfanyl-pyridin-3-yl)-indol-1-yl]-butyric acid] | 200 to 2000 nM |
| CN(CCCC(=O)O)c1c(F)cc(-c2cccc(N3CCCC3)c2)cc1F [Example 201, 4-[(3,5-difluoro-3′-pyrrolidin-1-yl-biphenyl-4-yl)-methyl-amino]-butyric acid] | 200 to 2000 nM |
| CN(CCCC(=O)O)c1c(F)cc(-c2cccc(SC3CCC3)n2)cc1F [Example 202, 4-{[4-(6-cyclobutylsulfanyl-pyridin-2-yl)-2,6-difluoro-phenyl]-methyl-amino}-butyric acid] | < 200 nM |
| CN(CCCC(=O)O)c1c(F)cc(-c2cccc3c2OC(F)(F)O3)cc1F [Example 203, 4-{[4-(2,2-difluoro-benzo[1,3]dioxol-4-yl)-2,6-difluoro-phenyl]-methyl-amino}-butyric acid] | < 200 nM |
| CN(CCCC(=O)O)c1c(F)cc(-c2cccc(OC3CCCC3)n2)cc1F [Example 204, 4-{[4-(6-cyclopentyloxy-pyridin-2-yl)-2,6-difluoro-phenyl]-methyl-amino}-butyric acid] | < 200 nM |
| CN(CCCC(=O)O)c1c(F)cc(-c2cccc(OC3CCC3)n2)cc1F [Example 205, 4-{[4-(6-cyclobutoxy-pyridin-2-yl)-2,6-difluoro-phenyl]-methyl-amino}-butyric acid] | < 200 nM |
| CN(CCCC(=O)O)c1c(F)cc(-c2cccnc2OC2CCC2)cc1F [Example 206, 4-{[4-(2-cyclobutoxy-pyridin-3-yl)-2,6-difluoro-phenyl]-methyl-amino}-butyric acid] | < 200 nM |
| CCCSc1ncccc1-c1cc(F)c(N(C)CCCC(=O)O)c(F)c1 [Example 207, 4-{[2,6-difluoro-4-(2-propylsulfanyl-pyridin-3-yl)-phenyl]-methyl-amino}-butyric acid] | < 200 nM |
| CCSc1ncccc1-c1cc(F)c(N(C)CCCC(=O)O)c(F)c1 [Example 208, 4-{[4-(2-ethylsulfanyl-pyridin-3-yl)-2,6-difluoro-phenyl]-methyl-amino}-butyric acid] | < 200 nM |
| CN(CCCC(=O)O)c1ccc(-c2cccnc2SC2CCC2)cc1F [Example 209, 4-{[4-(2-cyclobutylsulfanyl-pyridin-3-yl)-2-fluoro-phenyl]-methyl-amino}-butyric acid] | < 200 nM |
| O=C(O)C1CC1CNc1c(F)cc(-c2cccnc2SC2CCCC2)cc1F (stereo not drawn) [Example 210, 2-{[4-(2-cyclopentylsulfanyl-pyridin-3-yl)-2,6-difluoro-phenylamino]-methyl}-cyclopropanecarboxylic acid] | < 200 nM |

Source: patent publication US11261186B2, “Biaryl derivative as GPR120 agonist” (LG CHEM, LTD., priority 2014, dated 2022)
